In PubChem BioAssay (NCI):
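96-well plates; 48 h exposure; 5 concentrations. Endpoints by linear interpolation between flanking doses. Not reached: highest tested concentration assigned. At the GI50, growth is halved. TGI: concentration producing complete growth inhibition.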

Experiments:
Test in all cases: inhibition of tumour cell growth, NCI panel, 48 h
COLO 205 colon = system: COLO 205 colon
MALME-3M melanoma = system: MALME-3M melanoma
OVCAR-5 ovarian = system: OVCAR-5 ovarian
SK-MEL-28 melanoma = system: SK-MEL-28 melanoma
CCRF-CEM leukemia = system: CCRF-CEM leukemia
CAKI-1 renal = system: CAKI-1 renal
MOLT-4 leukemia = system: MOLT-4 leukemia
NCI-H23 lung = system: NCI-H23 lung
HT29 colon = system: HT29 colon
SK-MEL-5 melanoma = system: SK-MEL-5 melanoma
SK-OV-3 ovarian = system: SK-OV-3 ovarian

| SMILES | TGI (COLO 205 colon) | TGI (MALME-3M melanoma) | TGI (OVCAR-5 ovarian) | TGI (SK-MEL-28 melanoma) | TGI (CCRF-CEM leukemia) | TGI (CAKI-1 renal) | TGI (MOLT-4 leukemia) | TGI (NCI-H23 lung) | TGI (HT29 colon) | TGI (SK-MEL-5 melanoma) | TGI (SK-OV-3 ovarian) | GI50 (MALME-3M melanoma) | GI50 (OVCAR-5 ovarian) | GI50 (SK-MEL-28 melanoma) | GI50 (CCRF-CEM leukemia) | GI50 (CAKI-1 renal) | GI50 (MOLT-4 leukemia) | GI50 (NCI-H23 lung) | GI50 (HT29 colon) | GI50 (SK-OV-3 ovarian) |
| --- | --- | --- | --- | --- | --- | --- | --- | --- | --- | --- | --- | --- | --- | --- | --- | --- | --- | --- | --- | --- |
| COCCOC(=O)c1c(C)n([O-])c2cc(Cl)c(Cl)cc2[n+]1=O | 25 µM | 46.3 µM | 34.6 µM | 61.7 µM | 64.7 µM | 45.4 µM | 62.5 µM | 79.2 µM | 41.8 µM | 21.6 µM | 47.5 µM |  |  |  |  |  |  |  |  |  |
| CN1CCc2[nH]c3ccccc3c2C1 | > 100 µM | > 100 µM | > 100 µM | > 100 µM | > 100 µM | > 100 µM | > 100 µM | > 100 µM | > 100 µM | > 100 µM | > 100 µM |  |  |  |  |  |  |  |  |  |
| COC1=C(OC)C(=O)C(Cc2c(Cl)nc3sc(C)cn23)=C(C)C1=O | 34.7 µM | 26.5 µM | 35.9 µM | 32.2 µM | 8.73 µM | 72.7 µM | 4.21 µM | 42.6 µM | 36.3 µM | 23.9 µM | 32 µM |  |  |  |  |  |  |  |  |  |
| CCCCCCCCCCCCCCCCCCOc1ccccc1CC(=O)OCC[N+]1(C)CCCCC1 |  | 4.86 µM | 7.49 µM | 6.33 µM | 4.63 µM | 4.87 µM | 3.89 µM | 4.25 µM | 3.1 µM |  | 38.2 µM | 1.97 µM | 2.32 µM | 2.51 µM | 1.96 µM | 1.74 µM | 1.73 µM | 1.8 µM | 1.61 µM | 18.2 µM |
| OC1(c2cccs2)c2cccc(Cl)c2C(O)(c2cccs2)c2c(Cl)cccc21 (stereo not given) | > 100 µM | > 100 µM | > 100 µM | > 100 µM | > 100 µM | > 100 µM | > 100 µM | > 100 µM | > 100 µM | > 100 µM | > 100 µM |  |  |  |  |  |  |  |  |  |
| CC(CCN)(CCN)[N+](=O)[O-] | > 100 µM | > 100 µM | > 100 µM | > 100 µM | > 100 µM | > 100 µM | > 100 µM | > 100 µM | > 100 µM | > 100 µM | > 100 µM |  |  |  |  |  |  |  |  |  |
| CCCCCCCCCCCCCCCCCCNC(=O)C(N)Cc1ccc(OCc2ccccc2)cn1 (stereo not given) | 28.8 µM | 42.9 µM | 43.1 µM | 50.8 µM | 78.9 µM | 32.7 µM | 55 µM | 31.7 µM | 31.2 µM | 31.9 µM | 40.2 µM |  |  |  |  |  |  |  |  |  |
| CN1CCOC(c2ccc(Cl)cc2)O1 (stereo not given) | > 100 µM | > 100 µM | > 100 µM | > 100 µM | > 100 µM | > 100 µM | > 100 µM | > 100 µM | > 100 µM | > 100 µM | > 100 µM |  |  |  |  |  |  |  |  |  |
| CN(C)CCCSc1nc2ccccc2[nH]1 | > 100 µM | > 100 µM | > 100 µM | > 100 µM |  | > 100 µM |  | > 100 µM | > 100 µM | > 100 µM | > 100 µM |  |  |  |  |  |  |  |  |  |
| CN(CCCCCl)P(=O)(OCc1ccc([N+](=O)[O-])o1)OC[C@H]1O[C@@H](n2cc(F)c(=O)[nH]c2=O)C[C@@H]1O (stereo not given in full) | 16.5 µM | 36.1 µM | > 100 µM | > 61.3 µM | 20.7 µM |  | > 46.1 µM | 20.5 µM | > 100 µM | 12.9 µM | 34.1 µM |  |  |  |  |  |  |  |  |  |
| Cn1c2ccccc2n2c(N=O)c(-c3ccccc3)nc12 | 22.6 µM | > 100 µM | > 100 µM | > 100 µM | > 100 µM | > 100 µM | > 100 µM | > 100 µM | > 100 µM | 34.1 µM | > 100 µM |  |  |  |  |  |  |  |  |  |
| O=C(Nc1ccc(Cl)cc1)c1cc2cc(N=Nc3ccccc3Cl)ccc2oc1=O | > 100 µM | 48.3 µM | 91.3 µM | 55.7 µM | 5.38 µM | > 100 µM | 10.1 µM | 34.5 µM | 29.6 µM | 61.9 µM | 84 µM |  |  |  |  |  |  |  |  |  |
| COc1cc2c(c(O)c1OC)-c1c(cc(OC)c(OC)c1OC)CC(C)C(C)C2 (stereo not given) | > 100 µM | > 100 µM | > 100 µM | > 100 µM | 62.1 µM | > 100 µM | 43.4 µM | > 100 µM | > 100 µM | > 100 µM | > 100 µM |  |  |  |  |  |  |  |  |  |
| Nc1ncnc2c1ncn2C=C=CCO | > 100 µM | > 100 µM | > 100 µM | > 100 µM | > 100 µM | > 100 µM | > 100 µM | > 100 µM | > 100 µM | > 100 µM |  |  |  |  |  |  |  |  |  |  |
| Cc1ccc(S(=O)(=O)n2cc(-c3cc(C(F)(F)F)ccn3)c3cc(Br)ccc32)cc1 | > 100 µM | 52.7 µM | > 100 µM | 62.6 µM | > 100 µM | 38.6 µM | > 100 µM | 31.1 µM | > 100 µM | 82.9 µM | 35.1 µM |  |  |  |  |  |  |  |  |  |
| C=C1c2ccccc2C(=O)c2c1c1c(C(=O)OC)c(O)ccc1n2Cc1ccccc1 | 3.72 µM | 1.18 µM | 2.44 µM | 1.07 µM | 0.74 µM | 1.71 µM | 0.971 µM | 2.8 µM | 0.823 µM | 1.97 µM | 1.35 µM |  |  |  |  |  |  |  |  |  |
| CC(C)=CCC/C(C)=C/CC/C(C)=C/CC/C(C)=C/C=C/C=C(\C)CC/C=C(\C)CC/C=C(\C)CCC=C(C)C | > 100 µM | > 100 µM | > 100 µM | > 100 µM | 59.8 µM | 32.1 µM | 49 µM | > 100 µM | > 100 µM | > 79.9 µM | > 100 µM |  |  |  |  |  |  |  |  |  |
| O=C([O-])C[n+]1ccccc1 | > 100 µM | > 100 µM | > 100 µM | > 100 µM | > 100 µM | > 100 µM | > 100 µM | > 100 µM | > 100 µM | > 100 µM | > 100 µM |  |  |  |  |  |  |  |  |  |
| C=CCN1C(=O)C=C(c2ccccc2)n2ncc3cccc1c32 | > 100 µM | > 100 µM | > 100 µM | > 100 µM | > 100 µM | > 100 µM | > 100 µM | > 100 µM | > 100 µM | > 100 µM | > 100 µM |  |  |  |  |  |  |  |  |  |
| O=S1(=O)N=C(SCc2ccccc2)N(c2ccccc2)c2ccncc21 | 38.3 µM | > 100 µM | > 100 µM | > 100 µM | > 100 µM | > 100 µM | > 100 µM | > 100 µM | > 100 µM | > 100 µM | > 100 µM |  |  |  |  |  |  |  |  |  |
| CCOc1ccc(NC(=O)C(=O)CC(=O)c2sc(NNC(C)=O)nc2C)cc1 | > 100 µM |  | > 100 µM | > 100 µM | > 100 µM | > 100 µM | > 100 µM | > 100 µM | > 100 µM | > 100 µM | > 100 µM |  |  |  |  |  |  |  |  |  |
| NN(CC(=O)O)CC(=O)O | > 100 µM | > 100 µM | > 100 µM | > 100 µM | > 100 µM | > 100 µM | > 100 µM | > 100 µM | > 100 µM | > 100 µM | > 100 µM |  |  |  |  |  |  |  |  |  |
| CCOc1cc(NC(C)=O)ccc1C(=O)NN1C(=O)C(Cl)C1c1ccccc1 (stereo not given) | 31.8 µM | 25.2 µM | 31.4 µM | 36.4 µM | 38.6 µM | 30.1 µM | 21.3 µM | 32.3 µM | 31.2 µM | 23.4 µM | 31.7 µM |  |  |  |  |  |  |  |  |  |
| Nc1ncnc2nc[nH]c12 | > 221 µM | > 232 µM | > 250 µM | > 250 µM | > 250 µM | > 250 µM | 159 µM | > 250 µM | > 250 µM | > 250 µM | > 250 µM | 86 µM |  |  | 32.4 µM | 58.9 µM | 15.8 µM |  |  |  |
